Experiments:
Assay in all cases: Kinase profiling in a biochemical assay panel (mobility shift assays and ELISA), %-inhibition at 1 μM; selectivity entropy
[1] = biological target: panel of more than 300 wild-type and mutant kinases (313 kinase panel) (Homo sapiens, UniProt Q9UM73)
[2] = biological target: T1, panel of more than 300 wild-type and mutant kinases (313 kinase panel) (Homo sapiens, UniProt Q8TDC3)
T1 sequence (Q8TDC3 1-778): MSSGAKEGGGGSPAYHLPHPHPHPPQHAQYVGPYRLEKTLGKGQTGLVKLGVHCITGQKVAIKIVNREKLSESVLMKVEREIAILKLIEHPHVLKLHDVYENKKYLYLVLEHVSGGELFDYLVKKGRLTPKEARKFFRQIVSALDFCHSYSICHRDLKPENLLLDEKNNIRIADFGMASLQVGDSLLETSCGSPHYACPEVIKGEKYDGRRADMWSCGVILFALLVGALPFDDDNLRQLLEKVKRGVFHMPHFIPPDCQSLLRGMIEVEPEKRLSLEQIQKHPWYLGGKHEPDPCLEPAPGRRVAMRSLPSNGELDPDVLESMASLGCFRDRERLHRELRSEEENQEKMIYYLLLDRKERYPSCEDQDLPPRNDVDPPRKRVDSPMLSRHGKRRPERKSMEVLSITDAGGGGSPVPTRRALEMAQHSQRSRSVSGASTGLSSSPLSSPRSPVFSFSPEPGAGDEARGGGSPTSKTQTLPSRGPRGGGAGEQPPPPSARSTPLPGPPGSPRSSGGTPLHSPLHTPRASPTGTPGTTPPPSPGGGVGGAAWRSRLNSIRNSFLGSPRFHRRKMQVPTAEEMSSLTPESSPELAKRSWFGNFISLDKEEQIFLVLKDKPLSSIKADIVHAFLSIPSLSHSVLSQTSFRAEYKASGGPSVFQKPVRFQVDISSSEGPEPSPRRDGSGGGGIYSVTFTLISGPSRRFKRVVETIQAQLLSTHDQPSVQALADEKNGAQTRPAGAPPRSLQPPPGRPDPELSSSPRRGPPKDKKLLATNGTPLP

[3] = biological target: panel of more than 300 wild-type and mutant kinases (313 kinase panel) (Homo sapiens, UniProt Q13233)
[4] = biological target: panel of more than 300 wild-type and mutant kinases (313 kinase panel) (Homo sapiens, UniProt P11362)
[5] = biological target: panel of more than 300 wild-type and mutant kinases (313 kinase panel) (Homo sapiens, UniProt Q8IY84)
[6] = biological target: panel of more than 300 wild-type and mutant kinases (313 kinase panel) (Homo sapiens, UniProt O75582)
[7] = biological target: T2, panel of more than 300 wild-type and mutant kinases (313 kinase panel) (Homo sapiens, UniProt Q12866)
T2 sequence (Q12866 21-999): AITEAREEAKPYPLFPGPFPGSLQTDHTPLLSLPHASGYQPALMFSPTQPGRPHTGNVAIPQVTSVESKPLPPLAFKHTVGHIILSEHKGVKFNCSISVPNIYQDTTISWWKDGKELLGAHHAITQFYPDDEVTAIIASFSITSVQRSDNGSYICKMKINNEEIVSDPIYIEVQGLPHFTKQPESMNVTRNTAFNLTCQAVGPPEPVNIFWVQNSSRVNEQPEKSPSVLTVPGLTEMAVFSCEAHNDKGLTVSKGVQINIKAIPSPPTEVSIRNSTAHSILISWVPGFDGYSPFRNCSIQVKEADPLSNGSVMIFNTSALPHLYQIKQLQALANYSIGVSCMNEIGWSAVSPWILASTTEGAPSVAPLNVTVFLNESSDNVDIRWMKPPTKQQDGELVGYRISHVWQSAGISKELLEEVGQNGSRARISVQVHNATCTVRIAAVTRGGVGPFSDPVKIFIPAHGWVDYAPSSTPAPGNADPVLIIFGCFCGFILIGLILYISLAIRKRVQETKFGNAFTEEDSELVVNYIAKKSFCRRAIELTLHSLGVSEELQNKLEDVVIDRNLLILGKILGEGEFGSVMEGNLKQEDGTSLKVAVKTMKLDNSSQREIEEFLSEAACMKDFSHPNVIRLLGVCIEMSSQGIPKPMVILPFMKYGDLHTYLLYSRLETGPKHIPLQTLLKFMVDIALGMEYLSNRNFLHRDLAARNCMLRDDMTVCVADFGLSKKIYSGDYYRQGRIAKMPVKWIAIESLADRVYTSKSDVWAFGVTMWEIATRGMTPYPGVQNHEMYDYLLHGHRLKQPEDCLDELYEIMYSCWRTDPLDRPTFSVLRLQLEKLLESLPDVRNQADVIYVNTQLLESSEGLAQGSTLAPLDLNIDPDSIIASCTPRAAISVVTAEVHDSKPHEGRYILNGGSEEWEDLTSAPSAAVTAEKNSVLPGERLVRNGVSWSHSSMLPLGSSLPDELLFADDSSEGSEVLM

[8] = biological target: panel of more than 300 wild-type and mutant kinases (313 kinase panel) (Homo sapiens, UniProt Q05397); details: kinase FAK; compound at 1 μM
[9] = kinase MAP3K1, compound at 1 μM

Chain of panel of more than 300 wild-type and mutant kinases (313 kinase panel) (Homo sapiens, UniProt Q13233) (Q13233 whole entry, change not shown): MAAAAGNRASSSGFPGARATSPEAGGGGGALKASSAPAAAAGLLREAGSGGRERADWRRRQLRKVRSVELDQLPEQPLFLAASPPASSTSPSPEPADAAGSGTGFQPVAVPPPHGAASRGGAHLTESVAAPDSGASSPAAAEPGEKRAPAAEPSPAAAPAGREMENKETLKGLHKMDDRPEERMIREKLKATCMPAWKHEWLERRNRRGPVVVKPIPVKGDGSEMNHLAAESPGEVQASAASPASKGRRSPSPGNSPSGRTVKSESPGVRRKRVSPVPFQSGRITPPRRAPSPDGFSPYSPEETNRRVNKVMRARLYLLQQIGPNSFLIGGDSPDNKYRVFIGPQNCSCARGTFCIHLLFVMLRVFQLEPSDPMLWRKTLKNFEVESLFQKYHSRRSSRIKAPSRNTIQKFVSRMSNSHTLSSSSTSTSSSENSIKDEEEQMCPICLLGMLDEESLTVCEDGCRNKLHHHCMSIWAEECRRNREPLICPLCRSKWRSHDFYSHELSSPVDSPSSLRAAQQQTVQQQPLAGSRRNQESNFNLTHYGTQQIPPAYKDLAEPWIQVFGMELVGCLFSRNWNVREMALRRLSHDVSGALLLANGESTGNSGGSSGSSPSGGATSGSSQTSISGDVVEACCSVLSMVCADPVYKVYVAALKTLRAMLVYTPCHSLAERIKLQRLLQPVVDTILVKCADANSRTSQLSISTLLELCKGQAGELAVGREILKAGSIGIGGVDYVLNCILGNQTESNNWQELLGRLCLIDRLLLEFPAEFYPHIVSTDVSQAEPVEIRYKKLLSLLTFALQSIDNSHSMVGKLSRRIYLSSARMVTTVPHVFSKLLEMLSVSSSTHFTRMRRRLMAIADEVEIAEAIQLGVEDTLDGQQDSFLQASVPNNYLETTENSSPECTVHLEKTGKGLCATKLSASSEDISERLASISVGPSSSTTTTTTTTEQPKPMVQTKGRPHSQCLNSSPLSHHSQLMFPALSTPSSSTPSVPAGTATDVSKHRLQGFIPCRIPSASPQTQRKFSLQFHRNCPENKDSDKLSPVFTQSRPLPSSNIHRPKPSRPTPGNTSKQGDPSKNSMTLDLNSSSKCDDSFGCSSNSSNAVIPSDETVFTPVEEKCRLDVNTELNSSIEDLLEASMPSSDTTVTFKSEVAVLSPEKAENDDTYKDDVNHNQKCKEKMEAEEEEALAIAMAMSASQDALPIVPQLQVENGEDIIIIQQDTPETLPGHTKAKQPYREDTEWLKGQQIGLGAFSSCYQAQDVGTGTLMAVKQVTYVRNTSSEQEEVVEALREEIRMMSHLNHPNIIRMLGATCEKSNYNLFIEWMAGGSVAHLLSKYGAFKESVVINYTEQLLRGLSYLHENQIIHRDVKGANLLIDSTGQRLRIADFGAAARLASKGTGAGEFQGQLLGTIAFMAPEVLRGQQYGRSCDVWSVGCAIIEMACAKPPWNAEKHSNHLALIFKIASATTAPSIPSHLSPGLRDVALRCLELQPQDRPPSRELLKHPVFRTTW
Chain of panel of more than 300 wild-type and mutant kinases (313 kinase panel) (Homo sapiens, UniProt P11362) (P11362 22-822, change not shown): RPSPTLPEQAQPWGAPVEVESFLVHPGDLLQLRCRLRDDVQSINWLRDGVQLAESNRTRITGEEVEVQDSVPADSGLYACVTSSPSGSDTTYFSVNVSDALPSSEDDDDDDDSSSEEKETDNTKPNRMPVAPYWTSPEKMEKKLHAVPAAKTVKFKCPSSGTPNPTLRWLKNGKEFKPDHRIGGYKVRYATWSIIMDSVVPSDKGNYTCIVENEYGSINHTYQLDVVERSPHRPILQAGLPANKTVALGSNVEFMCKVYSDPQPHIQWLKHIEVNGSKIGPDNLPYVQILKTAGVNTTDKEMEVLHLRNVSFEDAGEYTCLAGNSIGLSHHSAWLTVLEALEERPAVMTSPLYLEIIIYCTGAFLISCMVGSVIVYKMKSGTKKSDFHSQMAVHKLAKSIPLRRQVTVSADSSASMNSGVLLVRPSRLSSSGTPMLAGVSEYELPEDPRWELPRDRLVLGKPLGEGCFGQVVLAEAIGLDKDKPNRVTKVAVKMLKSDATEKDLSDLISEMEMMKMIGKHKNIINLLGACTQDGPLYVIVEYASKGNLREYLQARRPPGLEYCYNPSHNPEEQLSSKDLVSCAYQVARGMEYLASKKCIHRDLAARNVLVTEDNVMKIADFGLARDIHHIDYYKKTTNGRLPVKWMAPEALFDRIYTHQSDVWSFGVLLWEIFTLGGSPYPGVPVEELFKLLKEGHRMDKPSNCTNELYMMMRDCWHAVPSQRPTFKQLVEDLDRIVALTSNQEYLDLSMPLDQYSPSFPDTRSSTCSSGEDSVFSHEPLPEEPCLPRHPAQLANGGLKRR

SMILES | %-inhibition, ALK ([1]; kinase ALK, 1 μM compound) | %-inhibition, BRSK1 ([2]; kinase BRSK1, 1 μM compound) | %-inhibition of MAP3K1 [3, 9] | %-inhibition of FGFR1 ([4]; kinase FGFR1, compound at 1 μM) | %-inhibition of MGC42105 ([5]; kinase MGC42105, 1 μM) | %-inhibition of MSK1 ([6]; kinase MSK1, 1 μM) | %-inhibition of MER ([7]; kinase MER, compound at 1 μM) | %-inhibition of FAK [8] | %-inhibition, ALK ([1]; 1 µM) | %-inhibition of MSK1 ([6]; 1 µM) | %-inhibition, BRSK1 ([2]; 1 µM) | %-inhibition of MAP3K1 ([3]; 1 µM) | %-inhibition of FGFR1 ([4]; 1 µM) | %-inhibition of MGC42105 ([5]; 1 µM) | %-inhibition of MER ([7]; 1 µM)
Cc1ccc(C(=O)Nc2ccc(CN3CCN(C)CC3)c(C(F)(F)F)c2)cc1C#Cc1cnc2cccnn12 [ponatinib] | 9% | -8% | -9% | 101% | -5.68% | – | – | – | – | – | – | – | – | – | –
CC(C)(C)c1nc(-c2cccc(NS(=O)(=O)c3c(F)cccc3F)c2F)c(-c2ccnc(N)n2)s1 [dabrafenib] | – | 37% | -40% | 10% | -8.54% | 0.0759% | -0.876% | 13% | – | – | – | – | – | – | –
COc1cc(Nc2c(C#N)cnc3cc(OCCCN4CCN(C)CC4)c(OC)cc23)c(Cl)cc1Cl [bosutinib] | 71% | -11% | 60% | – | 32% | – | – | 22% | – | – | – | – | – | – | –
Cc1nc(Nc2ncc(C(=O)Nc3c(C)cccc3Cl)s2)cc(N2CCN(CCO)CC2)n1 [dasatinib] | – | – | – | – | -0.563% | – | – | – | – | – | – | – | – | – | –
CO[C@H]1C[C@@H]2CC[C@@H](C)[C@@](O)(O2)C(=O)C(=O)N2CCCC[C@H]2C(=O)O[C@H]([C@H](C)C[C@@H]2CC[C@@H](OC(=O)C(C)(CO)CO)[C@H](OC)C2)CC(=O)[C@H](C)/C=C(\C)[C@@H](O)[C@@H](OC)C(=O)[C@H](C)C[C@H](C)/C=C/C=C/C=C/1C [temsirolimus] | -2% | -14% | 6% | -6.47% | -11% | 0% | -3.24% | -5.48% | – | – | – | – | – | – | –
C#Cc1cccc(Nc2ncnc3cc(OCCOC)c(OCCOC)cc23)c1 [erlotinib] | – | – | – | – | – | – | – | – | 35% | 9% | 5.68% | 6% | 24% | 4% | 10%
CCCS(=O)(=O)Nc1ccc(F)c(C(=O)c2c[nH]c3ncc(-c4ccc(Cl)cc4)cc23)c1F [vemurafenib] | 1.14% | -8% | 13% | 21% | -8% | 0.256% | 6% | -3.55% | – | – | – | – | – | – | –
N#CC[C@H](C1CCCC1)n1cc(-c2ncnc3[nH]ccc23)cn1 [ruxolitinib] | – | -6.38% | -10% | 24% | -13% | 37% | – | -1% | 69% | – | – | – | – | – | -0.749%
CC(=O)Nc1cccc(-n2c(=O)n(C3CC3)c(=O)c3c(Nc4ccc(I)cc4F)n(C)c(=O)c(C)c32)c1 [trametinib] | -2.82% | -6% | 99% | -1.45% | 1.39% | -0.531% | -6.62% | -2.41% | – | – | – | – | – | – | –
COc1cc2c(Nc3ccc(Br)cc3F)ncnc2cc1OCC1CCN(C)CC1 [vandetanib] | – | -9% | -7.43% | – | -17% | -0.384% | 45% | -2.11% | – | – | – | – | – | – | –
CS(=O)(=O)CCNCc1ccc(-c2ccc3ncnc(Nc4ccc(OCc5cccc(F)c5)c(Cl)c4)c3c2)o1 [lapatinib] | 1.72% | 2% | 1.76% | -0.636% | – | 7% | 6% | 10% | – | – | – | – | – | – | –
CO[C@H]1C[C@@H]2CC[C@@H](C)[C@@](O)(O2)C(=O)C(=O)N2CCCC[C@H]2C(=O)O[C@H]([C@H](C)C[C@@H]2CC[C@@H](OCCO)[C@H](OC)C2)CC(=O)[C@H](C)/C=C(\C)[C@@H](O)[C@@H](OC)C(=O)[C@H](C)C[C@H](C)/C=C/C=C/C=C/1C [everolimus] | 1.68% | -9% | 7% | -8% | -4% | -2% | -4.24% | -4% | – | – | – | – | – | – | –
CNC(=O)c1cc(Oc2ccc(NC(=O)Nc3ccc(Cl)c(C(F)(F)F)c3)c(F)c2)ccn1 [regorafenib] | -3.43% | -17% | 4% | – | -22% | 1% | 29% | -1.14% | – | – | – | – | – | – | –
O=S(=O)(c1cccc2cnccc12)N1CCCNCC1 [fasudil] | -4.38% | -0.211% | 1.37% | -0.145% | 3.31% | 37% | -2.34% | -4% | – | – | – | – | – | – | –
C[C@@H](Oc1cc(-c2cnn(C3CCNCC3)c2)cnc1N)c1c(Cl)ccc(F)c1Cl [crizotinib] | – | 12% | 28% | 17% | -6% | -0.641% | – | 90% | – | – | – | – | – | – | –
Cc1ccc(Nc2nccc(N(C)c3ccc4c(C)n(C)nc4c3)n2)cc1S(N)(=O)=O [pazopanib] | 48% | -1.05% | 37% | – | 0.318% | 0.901% | 34% | 46% | – | – | – | – | – | – | –

Source: PMC3961306, “Comparison of the Cancer Gene Targeting and Biochemical Selectivities of All Targeted Kinase Inhibitors Approved for Clinical Use” (PLoS ONE, 2014)
